The bioavailability is dose-corrected exposure relative to a reference, in per cent. A lower bioavailability goes with poor availability. Usually IC50 stands for the point on the concentration scale where inhibition reaches its midpoint. A higher IC50 goes with a need for much substance.

These results are taken from patent publication US9249132B2, “Substituted bicyclic aromatic compounds as S-nitrosoglutathione reductase inhibitors” (Nivalis Therapeutics, Inc., priority 2010, dated 2016).

System in one series: not listed separately
In words: Mouse pharmacokinetic (PK) study. The class given is in vivo. The following applies: plasma, male BALB/c mice, PO 10 mg/kg, IV 2 mg/kg. From the text:
The mouse was used to determine the pharmacokinetics of compounds of the invention. This species is widely used to assess the bioavailability of compounds by administering both oral (PO) and intravenous (IV) test articles. Efficacy of the compounds of the invention was compared by assessing plasma exposure in male BALB/c mice either via IV or PO administration at the times of peak activity.
Compounds of the invention were reconstituted in a phosphate buffered saline (PBS)/10% Solutol (HS 15) clear solution resulting in a concentration of 0.2 mg/mL and administered to mice (2 mg/kg) as a single IV dose. Animals were dosed via the lateral tail vein. […] The plasma was transferred into labeled polypropylene tubes and frozen at −70° C. until analyzed by LC/MS/MS.
The compounds of the invention were reconstituted in 40% Propylene Glycol/40% Propylene Carbonate/20% of a 5% Sucrose clear solution resulting in a concentration of 2 mg/mL and administered to mice (10 mg/kg) as a single oral dose via gavage. […] The plasma was transferred into labeled polypropylene tubes and frozen at −70° C. until analyzed by LC/MS/MS.
Plasma samples at each timepoint were analyzed using a LC-MS/MS with a lower limit of quantification (LLOQ) of 1 ng/mL. […]
In addition to the above PK parameters, bioavailability (% F) was calculated.
On to `O=C(O)c1ccc(-c2ccc3cc(O)ccc3c2)c(F)c1` [Example 2, 3-fluoro-4-(6-hydroxynaphthalen-2-yl)benzoic acid], for which the bioavailability was over 40%.

A further series relates to dextran sodium sulfate (DSS)-induced IBD. In words: Acute prophylactic model of DSS-induced IBD. The class given is in vivo, mouse. The note with it: acute DSS-induced IBD. From the text:
Acute and chronic models of dextran sodium sulfate (DSS)-induced IBD in mice were used to explore efficacy of GSNORi against this disease. Acute and chronic DSS-induced IBD are widely used and well characterized models that induce pathological changes in the colon similar to those observed in the human disease. In these models and in human disease, epithelial cells within the crypts of the colon are disrupted, leading to dysfunction of the epithelial barrier and the ensuing tissue inflammation, edema, and ulceration. GSNORi therapy may benefit IBD by restoring s-nitrosoglutathione (GSNO) levels, and thus prevent or reverse the epithelial barrier dysfunction. Experimental IBD was induced by administration of DSS in the drinking water of male C57B1/6 mice (N=8 to 10 mice per group) for 6 consecutive days. GSNORi was dosed orally at doses of 0.1 to 10 mg/kg/day for 10 days starting two days prior to and continuing two days post DSS exposure. Two days post DSS exposure, the effect of GSNORi was assessed in a blinded fashion via endoscopy and histopathology using a five point scale ranging from a score=0 (normal tissue) through a score=4 (ulcerative tissue damage and marked pathological changes). Levels of circulating cytokines involved in inflammatory pathways were also assessed. The effect of GSNORi was compared to vehicle treated controls. The corticosteroid, prednisolone, was used as the positive control in this study and was administered daily at 3 mg/kg/day via oral dosing. Naïve mice (N=5) were also assessed as a normal tissue control.
For the compound `O=C(O)c1ccc(-c2ccc3cc(O)ccc3c2)c(F)c1` [Example 2, 3-fluoro-4-(6-hydroxynaphthalen-2-yl)benzoic acid], the “colon injury (in words)” value is given as “attenuated colon injury”.

The same series, now with this note: acute model; oral 10 mg/kg/day for 10 consecutive days, prophylactic dosing regimen.
For `O=C(O)c1ccc(-c2ccc3cc(O)ccc3c2)c(F)c1` [Example 2, 3-fluoro-4-(6-hydroxynaphthalen-2-yl)benzoic acid], the “decrease of percent of mice presenting with severe colon injury scores via histopathology, of vehicle control” value amounted to 26%.

Staying with this series, now noted: acute model; oral 10 mg/kg/day for 10 days; p<0.05.
On to `O=C(O)c1ccc(-c2ccc3cc(O)ccc3c2)c(F)c1` [Example 2, 3-fluoro-4-(6-hydroxynaphthalen-2-yl)benzoic acid], for which the “decrease of percent of mice presenting with severe endoscopy scores, of vehicle control” value is recorded as 58%.

For a further series, the target named is T1, GSNOR (Homo sapiens, UniProt P11766).
T1 construct: made in house; host or cells: E. coli
T1 sequence (P11766 whole entry): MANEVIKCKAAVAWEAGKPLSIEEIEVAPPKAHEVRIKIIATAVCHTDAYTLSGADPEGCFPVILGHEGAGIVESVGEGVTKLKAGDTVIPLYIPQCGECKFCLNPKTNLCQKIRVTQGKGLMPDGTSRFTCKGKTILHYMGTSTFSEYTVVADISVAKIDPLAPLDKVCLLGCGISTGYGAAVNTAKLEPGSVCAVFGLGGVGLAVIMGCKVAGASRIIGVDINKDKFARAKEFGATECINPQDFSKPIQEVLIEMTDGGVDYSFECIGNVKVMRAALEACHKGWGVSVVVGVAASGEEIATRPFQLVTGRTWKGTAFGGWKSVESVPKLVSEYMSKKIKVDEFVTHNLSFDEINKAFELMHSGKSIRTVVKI
In words: GSNOR assay (inhibition of GSNOR activity, change in 340 nm absorbance). The class given is biochemical. The following applies: 100 mM NaPO4 pH 7.4, 0.240 mM GSNO, 0.300 mM NADH, 0.5 μg/mL GSNO Reductase, 1% DMSO, 25° C. Here is the method: Various compounds were tested in vitro for their ability to inhibit GSNOR activity.
GSNOR expression and purification is described in Biochemistry 2000, 39, 10720-10729.
GSNOR Fermentation: Pre-cultures were grown from stabs of a GSNOR glycerol stock in 2XYT media containing 100 ug/ml ampicillin after an overnight incubation at 37° C. Cells were then added to fresh 2XYT (4 L) containing ampicillin and grown to an OD (A600) of 0.6-0.9 at 37° C. before induction. GSNOR expression was induced with 0.1% arabinose in an overnight incubation at 20° C.
GSNOR Purification: E. coli cell paste was lysed by nitrogen cavitation and the clarified lysate purified by Ni affinity chromatography on an AKTA FPLC (Amersham Pharmacia). The column was eluted in 20 mM Tris pH 8.0/250 mM NaCl with a 0-500 mM imidazole gradient. Eluted GSNOR fractions containing the Smt-GSNOR fusion were digested overnight with Ulp-1 at 4° C. to remove the affinity tag then re-run on the Ni column under the same conditions. GSNOR was recovered in the flowthrough fraction and for crystallography is further purified by Q-Sepharose and Heparin flowthrough chromatography in 20 mM Tris pH 8.0, 1 mM DTT, 10 uM ZnSO4.
GSNOR Assay: GSNO and enzyme/NADH Solutions are made up fresh each day. The solutions are filtered and allowed to warm to room temperature. GSNO solution: 100 mM NaPO4 (pH 7.4), 0.480 mM GSNO. 396 μL of GSNO Solution is added to a cuvette followed by 8 μL of test compound in DMSO (or DMSO only for full reaction control) and mixed with the pipette tip. Compounds to be tested are made up at a stock concentration of 10 mM in 100% DMSO. 2 fold serial dilutions are done in 100% DMSO. 8 μL of each dilution are added to an assay so that the final concentration of DMSO in the assay is 1%. The concentrations of compounds tested range from 100 to 0.003 μM. Enzyme/NADH solution: 100 mM NaPO4 (pH 7.4), 0.600 mM NADH, 1.0 μg/mL GSNO Reductase. 396 μL of the Enzyme/NADH solution is added to the cuvette to start the reaction. The cuvette is placed in the Cary 3E UV/Visible Spectrophotometer and the change in 340 nm absorbance/min at 25° C. is recorded for 3 minutes. The assays are done in triplicate for each compound concentration. IC50's for each compound are calculated using the standard curve analysis in the Enzyme Kinetics Module of SigmaPlot.
Final assay conditions: 100 mM NaPO4, pH 7.4, 0.240 mM GSNO, 0.300 mM NADH, 0.5 μg/mL GSNO Reductase, and 1% DMSO. Final volume: 800 μL/cuvette.
As for `O=C(O)c1ccc(-c2ccc3cc(O)ccc3c2)c(F)c1` [Example 2, 3-fluoro-4-(6-hydroxynaphthalen-2-yl)benzoic acid], the IC50 is under 50 nM.
As to `COc1cc(C(=O)O)ccc1-c1ccc2cc(O)ccc2c1` [Example 3, 4-(6-hydroxynaphthalen-2-yl)-3-methoxybenzoic acid], the IC50 is under 100 nM.
The compound `CN(C)c1cc(C(=O)O)ccc1-c1ccc2cc(O)ccc2c1` [Example 5, 3-(dimethylamino)-4-(6-hydroxynaphthalen-2-yl)benzoic acid] came in with a half-inhibitory concentration (IC50) of under 100 nM.
The compound `N#Cc1cc(C(=O)O)ccc1-c1ccc2cc(O)ccc2c1` [Example 6, 3-cyano-4-(6-hydroxynaphthalen-2-yl)benzoic acid] gave an IC50 of under 50 nM.
In turn, `O=C(O)c1ccc(-c2ccc3cc(O)ccc3c2Br)cc1` [Example 12, 4-(1-bromo-6-hydroxynaphthalen-2-yl)benzoic acid] came in with an IC50 of under 50 nM.
The compound `N#Cc1c(-c2ccc(C(=O)O)cc2)ccc2cc(O)ccc12` [Example 15, 4-(1-cyano-6-hydroxynaphthalen-2-yl)benzoic acid] registered an IC50 of under 50 nM.
The compound `O=C(O)c1ccc(-c2ccc3cc(O)ccc3c2Cl)cc1` [Example 17, 4-(1-chloro-6-hydroxynaphthalen-2-yl)benzoic acid] gave an IC50 of under 50 nM.
In turn, `Oc1ccc2cc(-c3ccc(-c4nnn[nH]4)cc3)ccc2c1` [Example 18, 6-(4-(1H-tetrazol-5-yl)phenyl)naphthalen-2-ol] yielded an IC50 of under 100 nM.
On the same count and under the same terms, under `O=C(O)c1ccc(-c2ccc3cc(O)ccc3c2)c(C(F)(F)F)c1` [Example 20, 4-(6-hydroxynaphthalen-2-yl)-3-(trifluoromethyl)benzoic acid] stands under 100 nM; under `O=C(O)c1ccc(-c2cc3ccc(O)cc3cc2F)c(Cl)c1` [Example 21, 3-chloro-4-(3-fluoro-6-hydroxynaphthalen-2-yl)benzoic acid], under 50 nM.
`O=C(O)c1ccc(-c2cc3ccc(O)cc3cc2Cl)cc1` [Example 22, 4-(3-chloro-6-hydroxynaphthalen-2-yl)benzoic acid]: the IC50 is under 50 nM.
In turn, `O=C(O)c1ccc(-c2cc3ccc(O)cc3cc2F)cc1` [Example 23, 4-(3-fluoro-6-hydroxynaphthalen-2-yl)benzoic acid] came in with an IC50 of under 50 nM.
For the compound `COc1c(-c2ccc(C(=O)O)cc2)ccc2cc(O)ccc12` [Example 24, 4-(6-hydroxy-1-methoxynaphthalen-2-yl)benzoic acid], the 50% inhibitory concentration (IC50) was under 100 nM.
In turn, `O=C(O)c1ccc(-c2ccc3cc(O)ccc3c2F)cc1` [Example 25, 4-(1-fluoro-6-hydroxynaphthalen-2-yl)benzoic acid] gave an IC50 of under 50 nM.
Turning to `Cc1cc2cc(O)ccc2cc1-c1ccc(C(=O)O)cc1` [Example 26, 4-(6-hydroxy-3-methylnaphthalen-2-yl)benzoic acid], the IC50 is under 100 nM.
`N#Cc1c(-c2ccc(C(=O)O)cc2)ccc2c(F)c(O)ccc12` [Example 27, 4-(1-cyano-5-fluoro-6-hydroxynaphthalen-2-yl)benzoic acid] registered an IC50 of under 50 nM.
`N#Cc1c(-c2ccc(C(=O)O)cc2F)ccc2cc(O)ccc12` [Example 28, 4-(1-cyano-6-hydroxynaphthalen-2-yl)-3-fluorobenzoic acid]: the half-inhibitory concentration (IC50) was under 50 nM.
In turn, `O=C(O)c1ccc(-c2ccc3c(F)c(O)ccc3c2)c(Cl)c1` [Example 29, 3-chloro-4-(5-fluoro-6-hydroxynaphthalen-2-yl)benzoic acid] yielded an IC50 of under 50 nM.
On to `O=C(O)c1ccc(-c2ccc3c(F)c(O)ccc3c2)cc1` [Example 30, 4-(5-fluoro-6-hydroxynaphthalen-2-yl)benzoic acid], for which the IC50 was under 50 nM.
In the case of `O=C(O)c1ccc(-c2ccc3c(F)c(O)ccc3c2)c(F)c1` [Example 31, 3-fluoro-4-(5-fluoro-6-hydroxynaphthalen-2-yl)benzoic acid], the IC50 was under 50 nM.
`Cc1cc(C(=O)O)ccc1-c1ccc2c(F)c(O)ccc2c1` [Example 32, 4-(5-fluoro-6-hydroxynaphthalen-2-yl)-3-methylbenzoic acid] came in with an IC50 of under 50 nM.
`O=C(O)c1ccc(-c2ccc3cc(O)ccc3c2)cc1` [Example 33, 4-(6-hydroxynaphthalen-2-yl)benzoic acid] yielded an IC50 of under 100 nM.
